Results reported in ChEMBL document CHEMBL3885861, “Open TG-GATES”.

Organism: Rattus norvegicus
Assay: Open TG-GATES - Regimen: Single
Type: toxicity, organism-based, Sprague-Dawley
Parameters: regimen Single, gender Male, age 6 weeks
Conditions: in vivo, po, 0 mg/kg, route gavage, dose level Control; for Bas / Eos / Fbg / Hb / Ht / Lym / MCHC / MCV / Mono / PT / Plat / RBC / WBC / APTT: tissue Blood; for KIDNEY_L / KIDNEY_R / KIDNEY_TOTAL: tissue Kidney; for LIVER: tissue Liver; for ALP / ALT / AST / CRE / Ca / Cl / DBIL / GLC / K / LDH / Na / PL / RALB / TBIL / TC / TG / TP / gamma-GTP: tissue Plasma

**Q.** `COc1ccc([C@@H]2Sc3ccccc3N(CCN(C)C)C(=O)[C@@H]2OC(C)=O)cc1` [DILTIAZEM] was tested. Which TERMINAL_BW (3 h) did it give?
**A.** 181.4 g

**Q.** What about the Bas (3 h) of the same molecule?
**A.** 0%

**Q.** And the Eos (3 h)?
**A.** 0.8%

**Q.** And the Fbg (3 h)?
**A.** 269 mg/dL

**Q.** And the Hb (3 h)?
**A.** 13 g/dL

**Q.** And the Ht (3 h)?
**A.** 40.2%

**Q.** And the Lym (3 h)?
**A.** 76.8%

**Q.** And the MCHC (3 h)?
**A.** 32.3%

**Q.** And the MCV (3 h)?
**A.** 67 fL

**Q.** What about the Mono (3 h) of the same molecule?
**A.** 3.4%

**Q.** What about the PT (3 h) of the same molecule?
**A.** 14.3 s

**Q.** What about the Plat (3 h) of the same molecule?
**A.** 127.1 x10_4/uL

**Q.** And the RBC (3 h)?
**A.** 600.6 x10_4/ul

**Q.** And the WBC (3 h)?
**A.** 84.6 x10_2/uL

**Q.** What about the KIDNEY_L (3 h) of the same molecule?
**A.** 0.9 g

**Q.** And the KIDNEY_R (3 h)?
**A.** 0.9 g

**Q.** What about the KIDNEY_TOTAL (3 h) of the same molecule?
**A.** 1.8 g

**Q.** What about the LIVER (3 h) of the same molecule?
**A.** 8.3 g

**Q.** What about the ALP (3 h) of the same molecule?
**A.** 1273 IU/L

**Q.** And the ALT (3 h)?
**A.** 43.2 IU/L

**Q.** What about the AST (3 h) of the same molecule?
**A.** 75.4 IU/L

**Q.** And the CRE (3 h)?
**A.** 0.2 mg/dL

**Q.** And the Ca (3 h)?
**A.** 10.9 mg/dL

**Q.** And the Cl (3 h)?
**A.** 106.8 meq/L

**Q.** And the DBIL (3 h)?
**A.** 0.01 mg/dL

**Q.** And the GLC (3 h)?
**A.** 178.4 mg/dL

**Q.** What about the K (3 h) of the same molecule?
**A.** 4.4 meq/L

**Q.** What about the LDH (3 h) of the same molecule?
**A.** 79.2 IU/L

**Q.** What about the Na (3 h) of the same molecule?
**A.** 142 meq/L

**Q.** And the PL (3 h)?
**A.** 141 mg/dL

**Q.** What about the RALB (3 h) of the same molecule?
**A.** 2.5 g/dL

**Q.** What about the TBIL (3 h) of the same molecule?
**A.** 0.04 mg/dL

**Q.** What about the TC (3 h) of the same molecule?
**A.** 83.2 mg/dL

**Q.** And the TG (3 h)?
**A.** 38.4 mg/dL

**Q.** And the TP (3 h)?
**A.** 5.1 g/dL

**Q.** What about the gamma-GTP (3 h) of the same molecule?
**A.** 1 IU/L

**Q.** And the TERMINAL_BW (6 h)?
**A.** 181.1 g

**Q.** What about the APTT (6 h) of the same molecule?
**A.** 18.2 s

**Q.** And the Bas (6 h)?
**A.** 0%

**Q.** And the Eos (6 h)?
**A.** 0.4%

**Q.** And the Fbg (6 h)?
**A.** 280 mg/dL

**Q.** And the Hb (6 h)?
**A.** 13.3 g/dL

**Q.** And the Ht (6 h)?
**A.** 40.7%

**Q.** And the Lym (6 h)?
**A.** 78%

**Q.** What about the MCHC (6 h) of the same molecule?
**A.** 32.6%

**Q.** And the MCV (6 h)?
**A.** 66.8 fL

**Q.** And the Mono (6 h)?
**A.** 2.6%

**Q.** What about the PT (6 h) of the same molecule?
**A.** 14.5 s

**Q.** What about the Plat (6 h) of the same molecule?
**A.** 116.6 x10_4/uL

**Q.** And the RBC (6 h)?
**A.** 609.6 x10_4/ul

**Q.** What about the WBC (6 h) of the same molecule?
**A.** 77 x10_2/uL

**Q.** What about the KIDNEY_L (6 h) of the same molecule?
**A.** 0.8 g

**Q.** And the KIDNEY_R (6 h)?
**A.** 0.8 g

**Q.** What about the KIDNEY_TOTAL (6 h) of the same molecule?
**A.** 1.7 g

**Q.** And the LIVER (6 h)?
**A.** 7.8 g

**Q.** And the ALP (6 h)?
**A.** 1331.4 IU/L

**Q.** What about the ALT (6 h) of the same molecule?
**A.** 40.2 IU/L

**Q.** What about the AST (6 h) of the same molecule?
**A.** 69.4 IU/L

**Q.** And the CRE (6 h)?
**A.** 0.2 mg/dL

**Q.** What about the Ca (6 h) of the same molecule?
**A.** 10.8 mg/dL

**Q.** What about the Cl (6 h) of the same molecule?
**A.** 106.6 meq/L

**Q.** And the DBIL (6 h)?
**A.** 0.006 mg/dL

**Q.** What about the GLC (6 h) of the same molecule?
**A.** 171.6 mg/dL

**Q.** And the K (6 h)?
**A.** 4.1 meq/L

**Q.** What about the LDH (6 h) of the same molecule?
**A.** 61.4 IU/L

**Q.** What about the Na (6 h) of the same molecule?
**A.** 143 meq/L

**Q.** And the PL (6 h)?
**A.** 129.8 mg/dL

**Q.** And the RALB (6 h)?
**A.** 2.5 g/dL

**Q.** And the TBIL (6 h)?
**A.** 0.038 mg/dL

**Q.** And the TC (6 h)?
**A.** 71.8 mg/dL

**Q.** And the TG (6 h)?
**A.** 43.2 mg/dL

**Q.** And the TP (6 h)?
**A.** 5.1 g/dL

**Q.** What about the gamma-GTP (6 h) of the same molecule?
**A.** 1 IU/L

**Q.** And the TERMINAL_BW (9 h)?
**A.** 180.5 g

**Q.** And the APTT (9 h)?
**A.** 17 s

**Q.** What about the Bas (9 h) of the same molecule?
**A.** 0%

**Q.** What about the Eos (9 h) of the same molecule?
**A.** 0.6%

**Q.** What about the Fbg (9 h) of the same molecule?
**A.** 313 mg/dL

**Q.** What about the Hb (9 h) of the same molecule?
**A.** 13.3 g/dL

**Q.** What about the Ht (9 h) of the same molecule?
**A.** 41.1%

**Q.** And the Lym (9 h)?
**A.** 75.4%

**Q.** And the MCHC (9 h)?
**A.** 32.3%

**Q.** And the MCV (9 h)?
**A.** 66.5 fL

**Q.** And the Mono (9 h)?
**A.** 2.4%

**Q.** What about the PT (9 h) of the same molecule?
**A.** 14.5 s

**Q.** And the Plat (9 h)?
**A.** 126.8 x10_4/uL

**Q.** What about the RBC (9 h) of the same molecule?
**A.** 619.2 x10_4/ul

**Q.** And the WBC (9 h)?
**A.** 78.7 x10_2/uL

**Q.** And the KIDNEY_L (9 h)?
**A.** 0.8 g

**Q.** What about the KIDNEY_R (9 h) of the same molecule?
**A.** 0.8 g

**Q.** What about the KIDNEY_TOTAL (9 h) of the same molecule?
**A.** 1.7 g

**Q.** What about the LIVER (9 h) of the same molecule?
**A.** 6.9 g

**Q.** What about the ALP (9 h) of the same molecule?
**A.** 1820.2 IU/L

**Q.** And the ALT (9 h)?
**A.** 43 IU/L

**Q.** And the AST (9 h)?
**A.** 75.4 IU/L

**Q.** What about the CRE (9 h) of the same molecule?
**A.** 0.2 mg/dL

**Q.** What about the Ca (9 h) of the same molecule?
**A.** 10.6 mg/dL

**Q.** And the Cl (9 h)?
**A.** 107 meq/L

**Q.** And the DBIL (9 h)?
**A.** 0.01 mg/dL

**Q.** What about the GLC (9 h) of the same molecule?
**A.** 178 mg/dL

**Q.** What about the K (9 h) of the same molecule?
**A.** 4.1 meq/L

**Q.** And the LDH (9 h)?
**A.** 71.8 IU/L

**Q.** And the Na (9 h)?
**A.** 142.2 meq/L

**Q.** What about the PL (9 h) of the same molecule?
**A.** 119.4 mg/dL

**Q.** What about the RALB (9 h) of the same molecule?
**A.** 2.5 g/dL

**Q.** What about the TBIL (9 h) of the same molecule?
**A.** 0.038 mg/dL

**Q.** What about the TC (9 h) of the same molecule?
**A.** 67.2 mg/dL

**Q.** What about the TG (9 h) of the same molecule?
**A.** 28.4 mg/dL

**Q.** And the TP (9 h)?
**A.** 5.2 g/dL

**Q.** What about the gamma-GTP (9 h) of the same molecule?
**A.** 1.8 IU/L

**Q.** What about the TERMINAL_BW (24 h) of the same molecule?
**A.** 198.1 g

**Q.** And the Bas (24 h)?
**A.** 0%

**Q.** And the Eos (24 h)?
**A.** 1%

**Q.** And the Fbg (24 h)?
**A.** 259.8 mg/dL

**Q.** And the Hb (24 h)?
**A.** 13 g/dL

**Q.** And the Ht (24 h)?
**A.** 39.6%

**Q.** What about the Lym (24 h) of the same molecule?
**A.** 74.6%

**Q.** What about the MCHC (24 h) of the same molecule?
**A.** 32.9%

**Q.** And the MCV (24 h)?
**A.** 64.9 fL

**Q.** And the Mono (24 h)?
**A.** 3.4%

**Q.** What about the PT (24 h) of the same molecule?
**A.** 14.8 s

**Q.** And the Plat (24 h)?
**A.** 119.2 x10_4/uL

**Q.** And the RBC (24 h)?
**A.** 610.2 x10_4/ul

**Q.** And the WBC (24 h)?
**A.** 90.7 x10_2/uL

**Q.** What about the KIDNEY_L (24 h) of the same molecule?
**A.** 0.9 g

**Q.** What about the KIDNEY_R (24 h) of the same molecule?
**A.** 0.9 g

**Q.** What about the KIDNEY_TOTAL (24 h) of the same molecule?
**A.** 1.8 g

**Q.** What about the LIVER (24 h) of the same molecule?
**A.** 8.9 g

**Q.** What about the ALT (24 h) of the same molecule?
**A.** 48 IU/L

**Q.** What about the AST (24 h) of the same molecule?
**A.** 77 IU/L

**Q.** And the CRE (24 h)?
**A.** 0.2 mg/dL

**Q.** What about the Ca (24 h) of the same molecule?
**A.** 11.1 mg/dL

**Q.** And the Cl (24 h)?
**A.** 107 meq/L

**Q.** And the DBIL (24 h)?
**A.** 0.014 mg/dL

**Q.** What about the GLC (24 h) of the same molecule?
**A.** 187.4 mg/dL

**Q.** And the K (24 h)?
**A.** 4.2 meq/L

**Q.** What about the LDH (24 h) of the same molecule?
**A.** 88.4 IU/L

**Q.** What about the Na (24 h) of the same molecule?
**A.** 143.8 meq/L

**Q.** What about the PL (24 h) of the same molecule?
**A.** 148.6 mg/dL

**Q.** And the RALB (24 h)?
**A.** 2.6 g/dL

**Q.** And the TBIL (24 h)?
**A.** 0.03 mg/dL

**Q.** What about the TC (24 h) of the same molecule?
**A.** 76.6 mg/dL
